Results on seven compounds are retold here after patent US12421269B2, “SGLT2/DPP4 inhibitor and application thereof” (CGeneTech (Suzhou, China) CO., Ltd., priority 2019, dated 2025).

Marks after values point to notes of the source that are not given here.

One assay addresses T1, Human-SGLT1 (Homo sapiens, UniProt P13866).
T1 sequence (P13866 1-664): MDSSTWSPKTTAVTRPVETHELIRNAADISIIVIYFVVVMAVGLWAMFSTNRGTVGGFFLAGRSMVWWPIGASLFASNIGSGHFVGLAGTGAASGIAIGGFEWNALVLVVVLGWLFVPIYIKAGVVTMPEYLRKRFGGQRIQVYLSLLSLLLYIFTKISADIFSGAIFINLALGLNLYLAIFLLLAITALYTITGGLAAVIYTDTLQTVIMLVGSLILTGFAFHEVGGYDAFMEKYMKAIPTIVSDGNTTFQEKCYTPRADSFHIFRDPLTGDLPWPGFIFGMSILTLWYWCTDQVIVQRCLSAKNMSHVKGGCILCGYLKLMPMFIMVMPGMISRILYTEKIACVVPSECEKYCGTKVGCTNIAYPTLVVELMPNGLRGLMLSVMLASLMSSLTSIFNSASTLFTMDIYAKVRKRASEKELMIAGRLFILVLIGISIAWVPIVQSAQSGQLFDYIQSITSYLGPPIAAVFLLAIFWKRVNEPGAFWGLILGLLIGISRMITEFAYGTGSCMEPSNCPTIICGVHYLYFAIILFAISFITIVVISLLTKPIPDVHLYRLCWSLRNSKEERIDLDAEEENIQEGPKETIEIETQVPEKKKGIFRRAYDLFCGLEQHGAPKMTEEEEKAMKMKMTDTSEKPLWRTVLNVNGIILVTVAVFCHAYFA
The assay can be described thus: SGLT1 glucose transport assay ([14C]-labeled glucose uptake). Type of assay: cell-based. As to conditions: cells stably expressing Human-SGLT1, 37° C., 2 hours. The method, then: To test the effect of compounds on the glucose transport activity of SGLT1 transporters by measuring the amount of [^14C]-labeled glucose entering highly expressed Human-SGLT1 cells.
The cells stably expressing Human-SGLT1 used for the experiments were constructed by WuXi AppTec Shanghai. The SGLT1 cells were plated in Cytostar-T (PerkinElmer) 96-well cell culture plates and cultured overnight at 5% CO2, 37° C.
(§1) Experimental buffer: 10 mM 4-hydroxyethylpiperazine ethanesulfonic acid (HEPES), 1.2 mM magnesium chloride (MgCl2), 4.7 mM potassium chloride (KCl), 2.2 mM calcium chloride (CaCl2) and 120 mM sodium chloride (NaCl).
The compounds were diluted with 100% dimethyl sulfoxide (DMSO) at a starting concentration of 1 mM, 8 points of 5-fold serial gradient dilution was made.
3 μM [^14C]-labeled methyl α-D-glucopyranoside (Methyl a-D-glucopyranosid) was prepared with experimental buffer.
Cells were treated with 49 μL of experimental buffer, 1 μL of gradient-diluted compound and 50 μL of 3 μM [^14C]-isotope-labeled glucose solution at 37° C. for 2 hours.
Readings were taken with an isotope detector (Micro beta Reader).
The data were calculated by GraphPad Prism 5.0 software using the formula: log(inhibitor) vs. response—Variable slope to obtain the IC50 values of the tested compounds, and the experimental results are shown in Table 5.

The target of a further assay is T2, Human-SGLT2 (Homo sapiens, UniProt P31639).
T2 sequence (P31639 1-672): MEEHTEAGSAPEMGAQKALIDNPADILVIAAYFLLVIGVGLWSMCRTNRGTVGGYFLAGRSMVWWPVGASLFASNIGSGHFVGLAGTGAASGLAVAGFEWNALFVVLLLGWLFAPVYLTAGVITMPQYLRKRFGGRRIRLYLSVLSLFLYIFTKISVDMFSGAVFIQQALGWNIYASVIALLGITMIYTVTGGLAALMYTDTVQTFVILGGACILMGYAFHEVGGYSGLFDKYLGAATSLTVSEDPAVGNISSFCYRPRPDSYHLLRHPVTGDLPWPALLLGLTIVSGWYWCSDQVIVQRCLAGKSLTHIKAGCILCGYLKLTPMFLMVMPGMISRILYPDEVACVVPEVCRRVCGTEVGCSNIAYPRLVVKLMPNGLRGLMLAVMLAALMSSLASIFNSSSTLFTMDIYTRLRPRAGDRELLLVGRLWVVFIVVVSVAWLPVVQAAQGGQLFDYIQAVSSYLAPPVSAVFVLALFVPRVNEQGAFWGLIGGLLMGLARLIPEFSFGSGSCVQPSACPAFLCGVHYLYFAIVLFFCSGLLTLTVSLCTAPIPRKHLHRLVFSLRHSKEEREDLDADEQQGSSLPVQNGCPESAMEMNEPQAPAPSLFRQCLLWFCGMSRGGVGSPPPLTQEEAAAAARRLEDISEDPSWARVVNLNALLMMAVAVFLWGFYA
The assay can be described thus: SGLT2 glucose transport assay ([14C]-labeled glucose uptake). As to conditions: cells stably expressing Human-SGLT2, 37° C., 2 hours. Format: cell-based. The procedure: To test the effect of compounds on the glucose transport activity of SGLT2 transporters by measuring the amount of [^14C]-labeled glucose entering highly expressed Human-SGLT2 cells.
The cells stably expressing Human-SGLT2 used for the experiments were constructed by WuXi AppTec Shanghai. SGLT2 cells were plated in 96-well cell culture plates (Greiner) and cultured overnight at 5% CO2, 37° C.
as §1
Termination buffer: 10 mM 4-hydroxyethylpiperazine ethanesulfonic acid (HEPES), 1.2 mM magnesium chloride (MgCl2), 4.7 mM potassium chloride (KCl), 2.2 mM calcium chloride (CaCl2), 120 mM sodium chloride (NaCl) and 1 μM LX4211.
The compounds were diluted with 100% dimethyl sulfoxide (DMSO) at a starting concentration of 10 μM, 8 points of 5-fold serial gradient dilution was made.
6 μM [^14C]-labeled methyl α-D-glucopyranoside was prepared with experimental buffer.
Cells were treated with 49 μL of experimental buffer, 1 μL of gradient-diluted compound, and 50 μL of 6 μM [^14C]-isotope-labeled glucose solution at 37° C. for 2 hours.
The liquid in the wells was aspirated and the cells were washed 3 times with termination buffer.
The cells were lysed with 50 μL of 10% sodium hydroxide solution, and the cell lysate was aspirated into a scintillation tube, and 2 mL of scintillation solution was added.
Readings were taken with an isotope detector (Tricarb).
The data were calculated by GraphPad Prism 5.0 software using the formula: log (inhibitor) vs. response—Variable slope to obtain the IC50 values of the tested compounds, and the experimental results are shown in Table 5.

The target of assay [1] is recombinant human dipeptidyl peptidase 4 (rhDPP4) (Homo sapiens, UniProt P27487). The assay can be described thus: rhDPP4 inhibitor screening experiment. Format: biochemical. As to conditions: Gly-Pro-aminofluorescein substrate, 1 hour at room temperature. An excerpt: To evaluate the inhibitory activity of compounds against recombinant human dipeptidyl peptidase 4 (rhDPP4) by measuring the half-inhibitory concentration (IC50) values of the compounds. In the experiment, rhDPP4 was used to catalyze the generation of […] from substrate, the substrate was a luminescent precursor […], and the substrate and luciferase were reacted to generate a light signal, the intensity of the light signal was proportional to the enzyme activity.
recombinant human dipeptidyl peptidase 4 (rhDPP4), sequence (P27487 whole entry): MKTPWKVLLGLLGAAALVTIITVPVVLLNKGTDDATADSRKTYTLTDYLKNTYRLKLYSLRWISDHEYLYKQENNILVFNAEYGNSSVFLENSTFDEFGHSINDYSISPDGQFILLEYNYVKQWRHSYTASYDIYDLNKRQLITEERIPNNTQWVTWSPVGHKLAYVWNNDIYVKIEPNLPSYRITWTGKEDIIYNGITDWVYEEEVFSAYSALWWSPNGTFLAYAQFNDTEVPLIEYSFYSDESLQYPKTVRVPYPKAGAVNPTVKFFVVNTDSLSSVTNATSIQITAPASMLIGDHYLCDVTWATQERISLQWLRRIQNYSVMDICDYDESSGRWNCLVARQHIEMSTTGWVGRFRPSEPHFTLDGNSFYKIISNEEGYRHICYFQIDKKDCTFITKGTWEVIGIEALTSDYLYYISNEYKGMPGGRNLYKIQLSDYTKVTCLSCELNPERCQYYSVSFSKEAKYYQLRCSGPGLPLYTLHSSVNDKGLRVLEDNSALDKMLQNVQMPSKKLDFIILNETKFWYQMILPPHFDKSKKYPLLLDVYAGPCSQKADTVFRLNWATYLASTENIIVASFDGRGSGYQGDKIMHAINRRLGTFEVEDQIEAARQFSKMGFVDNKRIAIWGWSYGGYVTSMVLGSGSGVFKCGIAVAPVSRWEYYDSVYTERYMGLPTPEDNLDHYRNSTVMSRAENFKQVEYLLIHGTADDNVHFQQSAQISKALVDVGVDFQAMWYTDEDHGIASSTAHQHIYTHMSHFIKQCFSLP
• 1) The gradient diluted compounds (4-fold fold-dilution, 10 assay concentrations) were transferred 250 nL into a 384-well plate (PerkingElmer-6007299) using a non-contact nano-acoustic pipetting system (ECHO), and dimethyl sulfoxide (DMSO) concentration was 0.5% in the final reaction system. Blank control wells (containing DMSO, substrate and 10 mM Tris-HCl) and positive control wells (containing DMSO, substrate and rhDPP4) were set up. • 2) The pre-dispensed frozen buffer containing luciferase was removed and restored to room temperature, and then the substrate was added to configure a working solution with a substrate concentration of 20 μM. RhDPP4 was prepared as a working solution of 0.2 ng/mL using 10 mM Tris-HCl (pH 8.0) aqueous solution. • 3) 25 μL of working solution containing 20 μM substrate and 25 μL of working solution containing 0.2 ng/mL rhDPP4 were added to a 384-well plate with the addition of the compound, then the mixture was centrifuged for 30 s at 1000 rpm, the plate was sealed with aluminum foil sealing film and incubated for 1 hour at room temperature. • 4) The intensity of the light signal was detected by EnVision, a multifunctional microplate reader. The raw data were used to calculate the inhibition of rhDPP4 activity by the compound. % of inhibition activity=100−(compound well signal value−blank control well signal value)/(positive control well signal value−blank control well signal value)*100. • The percent of inhibition was imported into GraphPad Prism software for data processing to derive the corresponding dose-effect curves and to derive the IC50 values of the tested compounds.

The subject of a further assay is SD Rat. The assay can be described thus: Oral glucose tolerance (OGTT) in rats. Format: in vivo. As to conditions: male SD rats, single gavage dose, Canagliflozin 3 mg/kg, test compound 10 mg/kg. The method, then: The animals will be acclimatized in the animal room for 1 week after arrival at the facility.
The animals are fasted for 16 hours in the metabolic cage and given the drug or solvent (5 mL/kg) according to the table above, followed immediately by 50% glucose solution (2 g/kg, 4 mL/kg).
After 1 hour of glucose administration, the animals resumed feeding, and blood samples were collected at 0 min, 20 min, 40 min, 60 min, 90 min and 120 min for blood glucose measurement; urine at 0 to 24 hours was used for urinary glucose (mg/200 g) and urine volume test, respectively.
All values were expressed as mean values. Statistical analysis was performed using Graphpad Prism 6 single factor analysis of variance Tukey's multiple comparison test. The p-value less than 0.05 was considered statistically significant.

On to `CS[C@H]1O[C@@H](c2cc(Cc3ccc(O[C@@H]4CCN([C@H]5CO[C@H](c6cc(F)ccc6F)[C@@H](N)C5)C4)cc3)c(Cl)cc2C)[C@H](O)[C@@H](O)[C@@H]1O` [WX002], for which the half-inhibitory concentration (IC50) on Human-SGLT1 came to 187 nM; against Human-SGLT2, 4.84 nM; in assay [1], 104 nM.

For the compound `COc1cc(F)c(Cc2ccc(O[C@@H]3CCN([C@H]4CO[C@H](c5cc(F)ccc5F)[C@@H](N)C4)C3)cc2)cc1[C@@H]1O[C@H](SC)[C@@H](O)[C@H](O)[C@H]1O` [WX007], the IC50 came to 2070 nM at Human-SGLT1, 19.7 nM at Human-SGLT2 and 32.5 nM in assay [1].

For the compound `Cc1ccc([C@@H]2O[C@H](CO)[C@@H](O)[C@H](O)[C@H]2O)cc1Cc1ccc(-c2ccc(F)cc2)s1` [Canagliflozin, reference compound], in the assay on SD Rat (glucose 2 g/kg), the OGTT blood glucose levels AUC0-2hr was found to be 945 mmol/L/min. In the assay on SD Rat (urine 0 to 24 hours), the Urinary glucose level was 1317**** mg/200 gBW and the Urine volume is on record as 24.4*** mL/200 gBW.

As for `CS[C@H]1O[C@@H](c2cccc(Cc3ccc(OC4CCN([C@H]5CO[C@H](c6cc(F)ccc6F)[C@@H](N)C5)C4)cc3)c2)[C@H](O)[C@@H](O)[C@@H]1O` (some centres unmarked) [WX005], the IC50 against Human-SGLT1 came out at 28.5 nM; on Human-SGLT2, 5.05 nM; in assay [1], 116 nM.

On to `CS[C@H]1O[C@@H](c2ccc(Cl)c(Cc3ccc(O[C@@H]4CCN([C@H]5CO[C@H](c6cc(F)ccc6F)[C@@H](N)C5)C4)cc3)c2C)[C@H](O)[C@@H](O)[C@@H]1O` [WX003], for which the half-inhibitory concentration (IC50) is 980 nM on Human-SGLT1, 332 nM on Human-SGLT2 and 112 nM in assay [1].

For the compound `CS[C@H]1O[C@@H](c2cc(Cc3ccc(O[C@@H]4CCN([C@H]5CO[C@H](c6cc(F)ccc6F)[C@@H](N)C5)C4)cc3)c(F)cc2C)[C@H](O)[C@@H](O)[C@@H]1O` [WX008], the IC50 against Human-SGLT1 was determined as 521 nM; at Human-SGLT2, 7.39 nM.

For the compound `CS[C@H]1O[C@@H](c2cc(C)c(Cl)c(Cc3ccc(OC4CCN([C@H]5CO[C@H](c6cc(F)ccc6F)[C@@H](N)C5)C4)cc3)c2)[C@H](O)[C@@H](O)[C@@H]1O` (some centres unmarked) [WX004], the concentration for half-maximal inhibition (IC50) came to 33.3 nM on Human-SGLT1, 5.96 nM against Human-SGLT2 and 166 nM in assay [1].

The IC50 is the concentration needed to halve the response being measured.
